Tests used:
HCT-116 cells = experiment: Intraabdominal seeding model, intraperitoneal injection of colon cancer cells into athymic mice (21 days); format: in vivo, mouse; conditions: HCT-116 IP in athymic mice; after 21 days; regardless of vehicle or BAY 11-7085
From the text: FIG. 6 is a group of photographs showing an intraabdominal seeding model. FIGS. 6A, B, C show tumor implants of the liver of three athymic mice 21 days after receiving intraperitoneal injections of HT-29 cells. The mice were pretreated and treated for a total of 21 days with DMSO twice weekly. […] The mouse was pretreated and treated for a total of 21 days with DMSO twice weekly. FIG. 6E is a micrograph showing tumor invasion through the liver capsule. This section was obtained from the tumor implant from the mouse in FIG. 6A. […] FIG. 6G, (liver), FIG. 6H, (abdominal wall), and FIG. 6I, (intestinal) show tumor implants in three athymic mice 21 days after receiving intraabdominal injections of HCT-116 cells. All of the mice were treated with 5 mg/kg of BAY 11-7085 twice weekly.
HT-29 and HCT-116 cells were harvested in 0.25% trypsin-PBS-EDTA, washed once in media and PBS, and resuspended in PBS at 1 million cells per 200 μL. […] Subcutaneous tumor sizes were determined by measuring the length and width with calipers. […]
During colorectal cancer surgery, seeding of the peritoneal cavity by tumor cells with tumor cell implantation of the peritoneal surfaces can occur. Seeding results from the transient suspension of cancer cells, through a loss of adhesion either naturally ro because of surgical displacement, followed by readhesion to other tissues. […]

DLD-1 and HT-29 cells = experiment: Readhesion survival of cells transduced with IκB super-repressor adenovirus (crystal violet); format: cell-based, human
Method: The percentage of apoptotic cells was determined using the annexin V assay. The data points represent the averages of three experiments; bars, +−.SE. E. DLD-1 and F. HT-29 cells were transduced with an adenovirus containing the IκB super-repressor construct. After 3 days, the cells were transiently suspended and allowed to readhere in the presence of subapoptotic concentrations of BAY 11-7085 or DMSO (vehicle) for 8 hours. The data are expressed as fractions of cells surviving compared with the controls (no adenovirus) and were quantitatively determined by staining the remaining adherent cells with crystal violet.
DLD-1 and HT-29 cells that were approximately 60-70% confluent were transduced with Ad-IκB super-repressor by adding 1-50 μL of purified virus to the cells. […] In a parallel experiment, the transduced cells were resuspended and allowed to readhere in BAY 11-7085 for 8 h. The percentage of surviving (nonapoptotic) cells was determined using crystal violet staining.
The specific involvement of NF-κB in the apoptotic mechanism of BAY 11-7085 was examined specifically. […] The transduced DLD-1 and HT-29 cells were then transiently suspended and allowed to readhere at concentrations of BAY 11-7085 below the in vitro apoptotic threshold (>20 μM) for these cell lines. […] Therefore, inhibition of NF-κB is important to the apoptotic effect of BAY 11-7085 during colon cancer cell readhesion.

TRAF-1 and TRAF-2 = experiment: Immunoblot of anti-apoptotic proteins in HT-29 cells; format: cell-based, human; conditions: 20 μM for 8 hours
Method: The data points represent the means of triplicate experiments and the error bars the standard errors of the means. […] The percent of apoptotic cells was then determined by the annexin V assay. […] The results shown are typical of two separate experiments. […] Immunoblots were performed for c-IAP-2, TRAF-1, TRAF-2, and FLIP. All lanes contain equal total protein.
The cells were washed twice in ice cold PBS and then lysed in 4° C. lysis buffer (50 mM HEPES, 150 mM NaCl, 1.5 mM MgCl2, 1 mM EGTA, 100 mM NaF, 10 mM Na2PO4, 1 mM Na3VO4, 10% glycerol, 1% TRITON™ X-100, and 1 μg/mL each of aprotinin, leupeptin, chymostatin, pepstatin) and clarified at 12,000 rpm at 4° C. for 15 minutes. The lysates were normalized for total protein concentration. Aliquots of the lysates were then mixed 1:1 in sample buffer (125 mM Tris-HCl (pH 6.8), 20% glycerol, 4% sodium dodecyl sulfate, 2% β-mercaptoethanol, 10 μg/mL bromophenol blue) and boiled for 3 minutes. The samples were loaded onto SDS-PAGE gels (7.5 or 10% acrylamide). […]
For immunodetection, the blocked blots were probed with primary antibody for 2 hours at 4° C. on a rocker. […] Alkaline phosphatase was detected by a colorimetric reaction using a BCIP (5-bromo-4-chloro-3-indolyl phosphate)/NBT (nitroblue tetrazolium) kit (Zymed).

For `CC(C)(C)c1ccc(S(=O)(=O)/C=C/C#N)cc1` [BAY 11-7085, (2E)-3-[4-(tertiarybutylphenyl)sulfonyl]-2-propenenitrile], the “metastases of parietal and visceral peritoneum” value (HCT-116 cells) was “clear evidence of metastases”, the “in vitro apoptotic threshold” value (DLD-1 and HT-29 cells; DLD-1 and HT-29 cells during readhesion) was > 20 µM and the “apoptotic threshold of BAY 11-7085 compared with the controls” value (DLD-1 and HT-29 cells; DLD-1 and HT-29 expressing IκB super-repressor, readhesion 8 hours) was “significantly lowered the apoptotic threshold”. The “TRAF-1 and TRAF-2 protein expression” value (TRAF-1 and TRAF-2) was “decrease in the protein expression of both TRAF-1 and TRAF-2 proteins”.

Source: patent publication US20110251135A1, “INHIBITORS OF PERITONEAL SEEDING OF CANCER CELLS” (University of Utah Research Foundation, priority 2008, published 2011)
